Reference: the supplement of paper PMC11451515

System: P12-Ichikawa
Test: cell viability relative to DMSO control; higher = less cytotoxic
Settings: 48 h
Summary of the method: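 In 1536-well plates, 5 μl of leukemia cells were seeded per well: 500 cells/well for NOMO1 or SEM and 1000 cells/well for P12-Ichikawa. Each line had first been adapted for at least four passages in each medium. Library compounds in DMSO were pin-dosed at 11 threefold concentrations between 47 μM and 0.79 nM, and CellTiter-Glo One luminescence was read after 48 h at 37°C. Viability is a per-plate percentage relative to DMSO wells, with cell-free wells as background.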

[1] = HPLM + 10% dialyzed FBS, 0.000781 µM
[2] = HPLM + 10% dialyzed FBS, 0.00234 µM
[3] = HPLM + 10% dialyzed FBS, 0.00702 µM
[4] = HPLM + 10% dialyzed FBS, 0.0211 µM
[5] = HPLM + 10% dialyzed FBS, 0.0632 µM
[6] = HPLM + 10% dialyzed FBS, 0.19 µM
[7] = HPLM + 10% dialyzed FBS, 0.569 µM
[8] = HPLM + 10% dialyzed FBS, 1.71 µM
[9] = HPLM + 10% dialyzed FBS, 5.12 µM
[10] = HPLM + 10% dialyzed FBS, 15.4 µM
[11] = HPLM + 10% dialyzed FBS, 46.1 µM
[12] = RPMI 5 mM glucose + 10% FBS, 0.000781 µM
[13] = RPMI 5 mM glucose + 10% FBS, 0.00234 µM
[14] = RPMI 5 mM glucose + 10% FBS, 0.00702 µM
[15] = RPMI 5 mM glucose + 10% FBS, 0.0211 µM
[16] = RPMI 5 mM glucose + 10% FBS, 0.0632 µM
[17] = RPMI 5 mM glucose + 10% FBS, 0.19 µM
[18] = RPMI 5 mM glucose + 10% FBS, 0.569 µM
[19] = RPMI 5 mM glucose + 10% FBS, 1.71 µM
[20] = RPMI 5 mM glucose + 10% FBS, 5.12 µM
[21] = RPMI 5 mM glucose + 10% FBS, 15.4 µM
[22] = RPMI 5 mM glucose + 10% FBS, 46.1 µM
[23] = RPMI 5 mM glucose + 10% dialyzed FBS, 0.000781 µM
[24] = RPMI 5 mM glucose + 10% dialyzed FBS, 0.00234 µM
[25] = RPMI 5 mM glucose + 10% dialyzed FBS, 0.00702 µM
[26] = RPMI 5 mM glucose + 10% dialyzed FBS, 0.0211 µM
[27] = RPMI 5 mM glucose + 10% dialyzed FBS, 0.0632 µM
[28] = RPMI 5 mM glucose + 10% dialyzed FBS, 0.19 µM
[29] = RPMI 5 mM glucose + 10% dialyzed FBS, 0.569 µM
[30] = RPMI 5 mM glucose + 10% dialyzed FBS, 1.71 µM
[31] = RPMI 5 mM glucose + 10% dialyzed FBS, 5.12 µM
[32] = RPMI 5 mM glucose + 10% dialyzed FBS, 15.4 µM
[33] = RPMI 5 mM glucose + 10% dialyzed FBS, 46.1 µM

Row | SMILES | cell viability [1] [%] | cell viability [2] [%] | cell viability [3] [%] | cell viability [4] [%] | cell viability [5] [%] | cell viability [6] [%] | cell viability [7] [%] | cell viability [8] [%] | cell viability [9] [%] | cell viability [10] [%] | cell viability [11] [%] | cell viability [12] [%] | cell viability [13] [%] | cell viability [14] [%] | cell viability [15] [%] | cell viability [16] [%] | cell viability [17] [%] | cell viability [18] [%] | cell viability [19] [%] | cell viability [20] [%] | cell viability [21] [%] | cell viability [22] [%] | cell viability [23] [%] | cell viability [24] [%] | cell viability [25] [%] | cell viability [26] [%] | cell viability [27] [%] | cell viability [28] [%] | cell viability [29] [%] | cell viability [30] [%] | cell viability [31] [%] | cell viability [32] [%] | cell viability [33] [%]
1 | CC1=CC=CC=C1N2\C(=N/C3=C(C(=CC=C3)C)C2=O)C[N]4C=NC5=C4N=CN=C5N | 115 | 124 | 122 | 85 | 120 | 118 | 108 | 106 | 79.5 | 78.2 | 82.2 | 113 | 116 | 107 | 79.6 | 109 | 98.1 | 97.6 | 81.2 | 62.8 | 60.5 | 57.9 | 107 | 123 | 116 | 81.7 | 128 | 112 | 108 | 95.6 | 70.2 | 56 | 63.9
2 | Cn1c(=O)c2c(ncn2C)n(C)c1=O.O=C(O)CC(O)(CC(=O)O)C(=O)O | 108 | 106 | 112 | 111 | 111 | 113 | 105 | 105 | 96.8 | 101 | 93.1 | 116 | 119 | 126 | 126 | 121 | 117 | 115 | 116 | 120 | 110 | 107 | 106 | 114 | 110 | 111 | 110 | 109 | 105 | 114 | 113 | 106 | 96.3
3 | CC1(C)O[C@@H]2C[C@H]3[C@@H]4CCC5=CC(=O)C=C[C@]5(C)[C@@]4(F)[C@@H](O)C[C@]3(C)[C@]2(C(=O)CO)O1 | 101 | 105 | 104 | 100 | 86.2 | 76.7 | 55.6 | 63.2 | 39.4 | 18.5 | 8.39 | 111 | 115 | 108 | 115 | 76.5 | 70.2 | 55.3 | 55.9 | 40 | 17.9 | 7.85 | 99.5 | 108 | 100 | 93.2 | 77.6 | 57.9 | 47.4 | 52.6 | 34 | 30.1 | 9.61
4 | COc1cnc(N[S+](=O)([O-])c2ccc(N)cc2)nc1 | 107 | 118 | 113 | 119 | 122 | 125 | 134 | 126 | 117 | 90.1 | 45.1 | 101 | 109 | 109 | 117 | 118 | 118 | 126 | 130 | 117 | 102 | 59.2 | 111 | 108 | 122 | 119 | 127 | 118 | 128 | 124 | 119 | 104 | 67
5 | CCCCCCCCCCCCCCCCCCCCCCO | 122 | 125 | 118 | 125 | 126 | 126 | 132 | 133 | 127 | 137 | 140 | – | – | – | – | – | – | – | – | – | – | – | – | – | – | – | – | – | – | – | – | – | –
6 | COC1=NC(=NC(=C1N\C2=N\CCN2)Cl)C | 87 | 90 | 83.9 | 98.2 | 94.8 | 94.1 | 93.4 | 95 | 93.9 | 103 | 109 | 84.1 | 95.6 | 88.3 | 95.3 | 100 | 94.9 | 101 | 95.5 | 82.6 | 93.4 | 107 | 83.3 | 91.6 | 83.6 | 95.1 | 89.6 | 87.7 | 91.4 | 88.6 | 84.5 | 94 | 87.5
7 | CC(C)n1nc(-c2cc3cc(O)ccc3[nH]2)c2c(N)ncnc21 | 109 | 107 | 112 | 106 | 99.4 | 90 | 73 | 72.7 | 64.9 | 47.4 | 36.8 | 100 | 109 | 110 | 95.3 | 92.8 | 79.5 | 66.5 | 56.9 | 52.5 | 35.4 | 17.5 | 105 | 116 | 111 | 118 | 108 | 86.4 | 73.6 | 66.6 | 48.6 | 30.8 | 20.5
8 | CC(=O)Nc1ccc(OC[C@](C)(O)C(=O)Nc2ccc([N+](=O)[O-])c(C(F)(F)F)c2)cc1 | 74.6 | 87 | 84.5 | 87.8 | 85.5 | 89.1 | 88.4 | 88.6 | 90.8 | 91.6 | 86.5 | 63.5 | 76.8 | 71.1 | 87 | 85.5 | 77 | 80.6 | 83.8 | 85.1 | 86.3 | 81.2 | 67.3 | 76.4 | 77.3 | 78.2 | 92.5 | 76.4 | 80 | 83.4 | 80.3 | 85.8 | 80.7
9 | O=NN(CCCl)C(=O)NCCCl | 87 | 94.8 | 108 | 103 | 103 | 114 | 100 | 101 | 102 | 104 | 95.2 | 83.3 | 97.9 | 100 | 96.3 | 109 | 100 | 97.2 | 93.6 | 103 | 99.3 | 98.6 | 87 | 95.8 | 104 | 99.7 | 106 | 99.7 | 94.6 | 100 | 97.2 | 102 | 100
10 | C[C@]12CC[C@@H]3c4ccc(OC(=O)N(CCCl)CCCl)cc4CC[C@H]3[C@@H]1CC[C@@H]2OP(=O)([O-])[O-].[Na+].[Na+] | 118 | 115 | 113 | 94.4 | 121 | 117 | 105 | 111 | 113 | 110 | 26.6 | 115 | 118 | 117 | 89 | 5.78 | 123 | 118 | 117 | 106 | 98.7 | 119 | 107 | 116 | 117 | 82.8 | 117 | 105 | 106 | 111 | 96 | 104 | 88.1
11 | OC(=O)C1=CC=C(NC2=NC3=C(C\N=C(/C4=CC(=CC=C34)Cl)C5=C(F)C=CC=C5F)C=N2)C=C1 | 93.9 | 101 | 97.8 | 105 | 104 | 89.4 | 77.6 | 48.5 | 27.1 | 18.6 | 18.3 | 95.8 | 99.1 | 106 | 107 | 110 | 93.9 | 74.4 | 48.9 | 27 | 24.7 | 25.1 | 98.1 | 95.1 | 96.2 | 91.4 | 101 | 95.4 | 75.7 | 52.3 | 36.6 | 32.6 | 30.7
12 | CC(N[C@H]1C[C@@H]1c1ccccc1)c1ccc2c(c1)OCCO2 (stereo partly specified) | 119 | 117 | 121 | 128 | 119 | 118 | 116 | 113 | 107 | 112 | 104 | – | – | – | – | – | – | – | – | – | – | – | – | – | – | – | – | – | – | – | – | – | –
13 | c1cncc(CN2CCC(n3ncc4c(N5CCOCC5)nc(-c5ccc6[nH]ccc6c5)nc43)CC2)c1 | 96.5 | 99.9 | 98.8 | 97.5 | 105 | 92.2 | 91.8 | 88.5 | 83.9 | 64.8 | 46.1 | 77.9 | 89.7 | 95.4 | 87.9 | 91.6 | 84.9 | 76.1 | 75.7 | 63.5 | 32.6 | 9.35 | 86.5 | 92.9 | 89.5 | 91.7 | 91.5 | 81.7 | 78.6 | 74.6 | 69.9 | 31.7 | 5.49
14 | Cc1c(CCOc2ccc(C(=O)O)cc2)c2cc(Cl)ccc2n1C(c1ccccc1)c1ccccc1 | 123 | 110 | 112 | 117 | 113 | 113 | 107 | 105 | 101 | 83.8 | 71.8 | 109 | 112 | 111 | 111 | 108 | 108 | 112 | 101 | 106 | 103 | 86.1 | 109 | 111 | 116 | 116 | 107 | 110 | 104 | 113 | 99.3 | 103 | 88.8
15 | CC\1=C(C(\N=C(/N1)C2=CC(=NC=C2)Cl)C3=C(F)C=C(Cl)C=C3)/C(=O)NC4=C(F)C=C5[NH]N=CC5=C4 (stereo unspecified) | 103 | 103 | 109 | 112 | 111 | 107 | 112 | 115 | 106 | 77.5 | 4.67 | 87.6 | 114 | 118 | 104 | 102 | 113 | 110 | 113 | 110 | 71.6 | 8.24 | 105 | 121 | 110 | 116 | 118 | 118 | 121 | 124 | 112 | 82.9 | 14.7
